Measured values published in US9120812B2, “Pyrimidooxazocine derivatives as mTOR-inhibitors” (SANOFI, priority 2012, dated 2015).

Key:
Akt-pS473 in U87MG cells = settings: Homo sapiens, U-87 MG; for IC50: read-out: U87 Akt-pS473 % Inhibition or IC50, nM (IC50), U87MG cells
PI3Kα (p110α/p85α) = PI3Kα (p110α/p85α) (Homo sapiens (Human), UniProt P42336); assay: PI3Kα enzymatic test by measuring the consumption of ATP; assay type: biochemical
Summary of the method: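 p110α/p85α (1.7 μg/ml) with 50 μM PIP2 and 2 μM ATP in pH 7.5 Tris buffer with EGTA, MgCl2, Chaps, DTT; reaction 90 min. Remaining ATP measured by luciferin/luciferase luminescence; IC50 from threefold serial dilutions spanning at least 10 000-fold.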

U87MG tumour cells = assay: Test of in vitro proliferation of U87MG tumour cells; assay type: cell-based; settings: Homo sapiens, U-87 MG, 72 h, U87MG cells, 72 hours; read-out: U87 Cell Proliferation IC50
Protocol: Model 4: Test of in vitro Proliferation of U87MG Tumour Cells.
The cell growth is determined with the reagent CellTiter 96 AQueous One Solution Cell Proliferation Assay from Promega (Cat. No. G3581).

[1] = biological target: mTOR (human recombinant aa mTOR 1360-2549) (Homo sapiens (Human), UniProt P42345); assay: mTOR enzymatic test by TR-FRET (phosphorylation of GFP-4EBP1); assay type: biochemical
Sequence of mTOR (human recombinant aa mTOR 1360-2549) (P42345 1360-2549): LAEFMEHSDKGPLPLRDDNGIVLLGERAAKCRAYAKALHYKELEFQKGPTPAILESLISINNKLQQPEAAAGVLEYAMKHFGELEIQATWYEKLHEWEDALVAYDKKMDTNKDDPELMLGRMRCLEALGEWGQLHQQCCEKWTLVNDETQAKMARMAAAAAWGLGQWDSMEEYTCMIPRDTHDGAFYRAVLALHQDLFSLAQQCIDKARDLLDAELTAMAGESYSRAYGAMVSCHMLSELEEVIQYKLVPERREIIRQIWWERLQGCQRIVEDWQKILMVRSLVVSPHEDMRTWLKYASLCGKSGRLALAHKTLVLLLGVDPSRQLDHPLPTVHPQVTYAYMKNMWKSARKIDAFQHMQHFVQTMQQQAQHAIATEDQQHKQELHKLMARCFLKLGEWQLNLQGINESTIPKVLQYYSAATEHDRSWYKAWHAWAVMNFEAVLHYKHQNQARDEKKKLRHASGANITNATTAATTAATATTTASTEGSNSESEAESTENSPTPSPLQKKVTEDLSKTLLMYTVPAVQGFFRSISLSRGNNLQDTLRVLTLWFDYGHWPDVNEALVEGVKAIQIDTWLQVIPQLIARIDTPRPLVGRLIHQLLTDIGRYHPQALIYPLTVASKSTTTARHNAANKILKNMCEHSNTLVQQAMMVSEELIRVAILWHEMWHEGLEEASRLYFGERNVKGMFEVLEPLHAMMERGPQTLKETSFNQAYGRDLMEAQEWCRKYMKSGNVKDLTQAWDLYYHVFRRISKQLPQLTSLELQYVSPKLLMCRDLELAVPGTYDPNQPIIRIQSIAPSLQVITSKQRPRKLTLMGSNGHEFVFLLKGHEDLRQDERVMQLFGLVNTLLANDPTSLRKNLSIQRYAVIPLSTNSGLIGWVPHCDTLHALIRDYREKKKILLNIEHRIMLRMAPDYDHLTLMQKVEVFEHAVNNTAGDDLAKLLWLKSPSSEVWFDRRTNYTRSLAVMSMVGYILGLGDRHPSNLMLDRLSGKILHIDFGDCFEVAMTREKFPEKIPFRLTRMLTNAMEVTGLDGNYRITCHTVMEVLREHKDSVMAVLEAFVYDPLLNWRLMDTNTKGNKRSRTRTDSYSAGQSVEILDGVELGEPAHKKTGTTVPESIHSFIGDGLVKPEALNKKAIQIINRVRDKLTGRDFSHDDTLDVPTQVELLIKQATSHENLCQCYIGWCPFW
Summary of the method: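 TR-FRET detection of GFP-4EBP1 phosphorylation by a terbium-labelled anti-phospho-Thr46 antibody. Kinase reaction ran 30 min at room temperature, was quenched with EDTA (10 mM final) plus Tb-antibody (2 nM final) and left 60 min. Emission at 520 and 490 nm after 340 nm excitation, reported as the 520/490 ratio.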

Sequence of PI3Kα (p110α/p85α) (P42336 whole entry): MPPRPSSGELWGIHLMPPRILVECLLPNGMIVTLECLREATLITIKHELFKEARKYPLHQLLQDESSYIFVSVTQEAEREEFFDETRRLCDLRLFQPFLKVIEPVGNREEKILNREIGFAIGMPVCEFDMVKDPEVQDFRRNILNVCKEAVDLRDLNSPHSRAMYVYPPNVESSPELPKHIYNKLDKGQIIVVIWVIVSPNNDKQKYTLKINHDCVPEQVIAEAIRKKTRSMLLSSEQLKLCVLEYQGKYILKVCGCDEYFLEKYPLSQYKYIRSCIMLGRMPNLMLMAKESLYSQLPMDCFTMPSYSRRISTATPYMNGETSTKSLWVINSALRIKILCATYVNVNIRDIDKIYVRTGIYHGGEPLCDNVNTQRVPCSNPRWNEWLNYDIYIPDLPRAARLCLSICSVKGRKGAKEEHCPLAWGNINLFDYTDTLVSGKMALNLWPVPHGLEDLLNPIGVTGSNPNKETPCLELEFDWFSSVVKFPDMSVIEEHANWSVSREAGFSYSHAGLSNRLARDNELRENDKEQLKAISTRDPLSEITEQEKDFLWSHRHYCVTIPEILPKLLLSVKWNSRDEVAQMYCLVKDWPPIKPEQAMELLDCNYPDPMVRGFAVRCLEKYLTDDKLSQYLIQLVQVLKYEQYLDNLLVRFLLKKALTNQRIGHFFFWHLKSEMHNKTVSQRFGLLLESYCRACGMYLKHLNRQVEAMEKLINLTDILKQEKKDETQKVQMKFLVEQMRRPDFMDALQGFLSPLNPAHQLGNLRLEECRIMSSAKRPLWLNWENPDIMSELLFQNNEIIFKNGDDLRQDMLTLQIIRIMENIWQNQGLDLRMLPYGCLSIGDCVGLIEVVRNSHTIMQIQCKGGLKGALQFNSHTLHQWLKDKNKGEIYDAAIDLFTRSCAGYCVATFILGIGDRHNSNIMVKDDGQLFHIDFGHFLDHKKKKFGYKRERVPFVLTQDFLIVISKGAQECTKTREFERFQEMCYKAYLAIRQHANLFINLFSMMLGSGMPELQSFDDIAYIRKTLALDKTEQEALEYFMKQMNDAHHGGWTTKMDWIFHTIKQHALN
Sequence of PI3Kα (p110α/p85α) (P27986 whole entry partner): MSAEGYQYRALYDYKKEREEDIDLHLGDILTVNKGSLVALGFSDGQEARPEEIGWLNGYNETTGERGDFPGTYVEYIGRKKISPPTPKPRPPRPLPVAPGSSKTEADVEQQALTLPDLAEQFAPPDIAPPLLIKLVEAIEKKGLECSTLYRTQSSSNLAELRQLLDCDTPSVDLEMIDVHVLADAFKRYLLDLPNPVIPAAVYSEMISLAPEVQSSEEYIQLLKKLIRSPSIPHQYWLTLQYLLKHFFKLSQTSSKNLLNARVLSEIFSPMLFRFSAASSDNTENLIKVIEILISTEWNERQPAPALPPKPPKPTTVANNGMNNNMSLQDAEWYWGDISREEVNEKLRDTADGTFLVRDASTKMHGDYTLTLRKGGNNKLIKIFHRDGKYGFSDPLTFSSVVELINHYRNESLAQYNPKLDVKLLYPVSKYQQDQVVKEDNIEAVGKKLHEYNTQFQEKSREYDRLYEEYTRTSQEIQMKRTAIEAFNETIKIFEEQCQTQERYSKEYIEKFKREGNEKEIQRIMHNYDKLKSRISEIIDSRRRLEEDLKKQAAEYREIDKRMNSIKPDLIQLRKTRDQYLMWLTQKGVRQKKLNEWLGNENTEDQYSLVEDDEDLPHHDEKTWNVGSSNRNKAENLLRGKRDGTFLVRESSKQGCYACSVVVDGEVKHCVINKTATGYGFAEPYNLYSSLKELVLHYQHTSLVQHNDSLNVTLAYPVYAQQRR

| SMILES | IC50 (Akt-pS473 in U87MG cells) [nM] | PI3Ka IC50 (PI3Kα (p110α/p85α)) [nM] | IC50 (U87MG tumour cells) [nM] | IC50 [1] [nM] | inhibition at 1 µM (Akt-pS473 in U87MG cells; read-out: U87 Akt-pS473 % Inhibition) [%] |
| --- | --- | --- | --- | --- | --- |
| CCN1CC(C)(C)Oc2nc(N3CC4CCC(C3)O4)nc(-c3ccc(NC(=O)Nc4cnc(OC)cn4)cc3)c2C1=O [Example 198, 1-{4-[6-Ethyl-8,8-dimethyl-2-(8-oxa-3-azabicyclo[3.2.1]oct-3-yl)-5-oxo-5,6,7,8-tetrahydro-9-oxa-1,3,6-triazabenzocyclohepten-4-yl]phenyl}-3-(5-methoxypyrazin-2-yl)urea] | 44 | >10000 | 318 | 57 | – |
| CCN1CC(C)(C)Oc2nc(N3CCOC[C@@H]3C)nc(-c3ccc(NC(=O)Nc4ccnc(C)c4)c(F)c3)c2C1=O [Example 199, 1-{4-[6-Ethyl-8,8-dimethyl-2-((S)-3-methylmorpholin-4-yl)-5-oxo-5,6,7,8-tetrahydro-9-oxa-1,3,6-triazabenzocyclohepten-4-yl]-2-fluorophenyl}-3-(2-methylpyridin-4-yl)urea] | 10 | 174 | 32 | 39 | – |
| CCN1CC(C)(C)Oc2nc(N3CC4CCC(C3)O4)nc(-c3ccc(NC(=O)Nc4ccc(N5CCOCC5)nc4)c(F)c3)c2C1=O [Example 200, 1-{4-[6-Ethyl-8,8-dimethyl-2-(8-oxa-3-azabicyclo[3.2.1]oct-3-yl)-5-oxo-5,6,7,8-tetrahydro-9-oxa-1,3,6-triazabenzocyclohepten-4-yl]-2-fluorophenyl}-3-(6-morpholin-4-ylpyridin-3-yl)urea] | 9 | >10000 | 108 | 52 | – |
| COCCN1CC(C)(C)Oc2nc(N3CCOC[C@@H]3C)nc(-c3ccc(NC(=O)Nc4cnn(C)c4)cc3)c2C1=O [Example 201, 1-{4-[6-(2-Methoxyethyl)-8,8-dimethyl-2-((S)-3-methylmorpholin-4-yl)-5-oxo-5,6,7,8-tetrahydro-9-oxa-1,3,6-triazabenzocyclohepten-4-yl]phenyl}-3-(1-methyl-1H-pyrazol-4-yl)urea] | 230 | 813 | 898 | 48 | – |
| CCN1CC(C)(C)Oc2nc(N3CCOC[C@@H]3C)nc(-c3ccc(NC(=O)Nc4ccccc4F)cc3)c2C1=O [Example 202, 1-{4-[6-Ethyl-8,8-dimethyl-2-((S)-3-methylmorpholin-4-yl)-5-oxo-5,6,7,8-tetrahydro-9-oxa-1,3,6-triazabenzocyclohepten-4-yl]phenyl}-3-(2-fluorophenyl)urea] | 5 | 213 | 73 | 19 | – |
| CCN1CC(C)(C)Oc2nc(N3CC4CCC(C3)O4)nc(-c3ccc(NC(=O)Nc4ccc(CN5CCCCC5)cc4)cc3)c2C1=O [Example 203, 1-{4-[6-Ethyl-8,8-dimethyl-2-(8-oxa-3-azabicyclo[3.2.1]oct-3-yl)-5-oxo-5,6,7,8-tetrahydro-9-oxa-1,3,6-triazabenzocyclohepten-4-yl]phenyl}-3-(4-piperidin-1-ylmethylphenyl)urea] | 111 | 9610 | 43 | 96 | – |
| CCN1CC(C)(C)Oc2nc(N3CCOC[C@@H]3C)nc(-c3ccc(NC(=O)Nc4cccc(OC(F)F)c4)cc3)c2C1=O [Example 204, 1-(3-Difluoromethoxyphenyl)-3-{4-[6-ethyl-8,8-dimethyl-2-((S)-3-methylmorpholin-4-yl)-5-oxo-5,6,7,8-tetrahydro-9-oxa-1,3,6-triazabenzocyclohepten-4-yl]phenyl}urea] | 18 | 468 | 74 | 61 | – |
| CCN1CC(C)(C)Oc2nc(N3CC4CCC(C3)O4)nc(-c3ccc(NC(=O)Nc4ccc(N5CCN(C)CC5)cc4)cc3)c2C1=O [Example 205, 1-{4-[6-Ethyl-8,8-dimethyl-2-(8-oxa-3-azabicyclo[3.2.1]oct-3-yl)-5-oxo-5,6,7,8-tetrahydro-9-oxa-1,3,6-triazabenzocyclohepten-4-yl]phenyl}-3-[4-(4-methylpiperazin-1-yl)phenyl]urea] | 13 | 3740 | 22 | 63 | – |
| CCN1CC(C)(C)Oc2nc(N3C[C@@H]4C[C@H]3CO4)nc(-c3ccc(NC(=O)NC)c(F)c3)c2C1=O [Example 206, 1-[4-((1S,4S)-6-Ethyl-8,8-dimethyl-2-2-oxa-5-azabicyclo[2.2.1]hept-5-yl-5-oxo-5,6,7,8-tetrahydro-9-oxa-1,3,6-triazabenzocyclohepten-4-yl)-2-fluorophenyl]-3-methylurea] | – | >10000 | 1340 | 145 | 87 |
| CCN1CC(C)(C)Oc2nc(N3C4CCC3COC4)nc(-c3ccc(NC(=O)NC)c(F)c3)c2C1=O [Example 207, 1-{4-[6-Ethyl-8,8-dimethyl-2-(3-oxa-8-azabicyclo[3.2.1]oct-8-yl)-5-oxo-5,6,7,8-tetrahydro-9-oxa-1,3,6-triazabenzocyclohepten-4-yl]-2-fluorophenyl}-3-methylurea] | 19 | >10000 | 74 | 18 | – |
| CCN1CC(C)(C)Oc2nc(N3CCOC[C@@H]3C)nc(-c3ccc(NC(=O)Nc4cc(OC)c(F)cc4F)cc3)c2C1=O [Example 208, 1-(2,4-Difluoro-5-methoxyphenyl)-3-{4-[6-ethyl-8,8-dimethyl-2-((S)-3-methylmorpholin-4-yl)-5-oxo-5,6,7,8-tetrahydro-9-oxa-1,3,6-triazabenzocyclohepten-4-yl]phenyl}urea] | 26 | 1240 | 181 | 81 | – |
| CCN1CC(C)(C)Oc2nc(N3CCOC[C@@H]3C)nc(-c3ccc(NC(=O)OCCO)c(F)c3)c2C1=O [Example 209, {4-[6-Ethyl-8,8-dimethyl-2-((S)-3-methylmorpholin-4-yl)-5-oxo-5,6,7,8-tetrahydro-9-oxa-1,3,6-triazabenzocyclohepten-4-yl]-2-fluorophenyl}carbamic acid 2-hydroxyethyl ester] | 69 | >10000 | 1050 | 155 | – |
| CNC(=O)Nc1ccc(-c2nc(N3CC4CCC(C3)O4)nc3c2C(=O)N(CCOC)CC(C)(C)O3)cc1F [Example 210, 1-{2-Fluoro-4-[6-(2-methoxyethyl)-8,8-dimethyl-2-(8-oxa-3-azabicyclo[3.2.1]oct-3-yl)-5-oxo-5,6,7,8-tetrahydro-9-oxa-1,3,6-triazabenzocyclohepten-4-yl]phenyl}-3-methylurea] | 174 | >10000 | 625 | 41 | – |
| CCNC(=O)Nc1ccc(-c2nc(N3CC4CCC(C3)O4)nc3c2C(=O)N(CCOC)CC(C)(C)O3)cc1F [Example 211, 1-Ethyl-3-{2-fluoro-4-[6-(2-methoxyethyl)-8,8-dimethyl-2-(8-oxa-3-azabicyclo[3.2.1]oct-3-yl)-5-oxo-5,6,7,8-tetrahydro-9-oxa-1,3,6-triazabenzocyclohepten-4-yl]phenyl}urea] | 270 | >10000 | 894 | 87 | – |
